Values after ≈ are worked out from the molar mass of the structure shown.
What was measured:
Type in all cases: cell-based
[1] = test system: Staphylococcus aureus (H-Heatley) NRRL B-314; assay: in vitro turbidometric assay (Autoturb Microbiological Assay System) against Staphylococcus aureus; details: nutrient broth pH 7, approximately 4 hours at 37° C., A-40104 factor A as standard
Protocol: The compounds are conveniently tested against a typical gram-positive organism, Staphylococcus aureus, using a turbidometric assay on a semi-automated system (Autoturb Microbiological Assay System, Elanco) described by N. R. Kuzel and F. W. Kavanagh in J. Pharmaceut. Sci, 60 (5), 764 and 767 (1971). In testing these compounds, the following parameters were used: Staphylococcus aureus (H-Heatley) NRRL B-314 in a nutrient broth medium (pH 7), incubated for approximately 4 hours at 37° C. Test samples and A-40104 factor A, which is used as a standard, were dissolved in water. The standard was presented to the Autoturb carrousel at concentrations of 1.25, 2.50, 3.75, 5.00 and 6.25 mcg/ml. Test compounds were diluted to contain approximately 2.5 to 5.0 mcg of activity per ml, as presented to the carrousel. The units of activity of some of the typical compounds of this invention (R^2 =H in group tested) in this in vitro assay are summarized in Table I

[2] = test system: Bacteroides melaninogenicus 2736; assay: standard agar-dilution test, anaerobic bacteria; details: Bacteroides melaninogenicus 2736; 24-hour incubation; read-out: MIC
[3] = test system: Bacteroides melaninogenicus 1856/28; assay: standard agar-dilution test, anaerobic bacteria; details: Prevotella intermedia; Bacteroides melaninogenicus 1856/28; 24-hour incubation; read-out: MIC
Clostridium perfringens = assay: microbe, parasite or virus in culture; details: 24 h
[4] = test system: Peptostreptococcus intermedius; assay: standard agar-dilution test, anaerobic bacteria; details: Peptostreptococcus intermedius; 24-hour incubation; read-out: MIC
Peptococcus prevoti = assay: standard agar-dilution test, anaerobic bacteria; details: Peptococcus prevoti; 24-hour incubation; read-out: MIC
Spiroplasma citri = assay: in vitro inhibition of Spiroplasma citri measured by a color reaction; design: key to Activity (color reaction): Red (R) includes complete inhibition; red-orange (RO) indicates partial inhibition; yellow (Y) indicates no inhibition
Protocol: In another important aspect, the compounds of this invention are active against Spiroplasmas. Spiroplasma citri is the causative agent of citrus-stubborn disease; another Spiroplasma, corn-stunt Spiroplasma, affects the growth of corn. Table VII summarizes the in vitro activity of representative compounds of the present invention (R^2 =H in this group) against Spiroplasma citri. In this test, inhibition of S. citri is measured by a color reaction. Red (R) includes complete inhibition; red-orange (RO) indicates partial inhibition; and yellow (Y) indicates no inhibition.

Fusobacterium symbiosum = assay: standard agar-dilution test, anaerobic bacteria; details: Fusobacterium, 24 h
Actinomyces israelii = assay: standard agar-dilution test, anaerobic bacteria; details: 24-hour incubation
[5] = test system: Peptostreptococcus anaerobius; assay: standard agar-dilution test, anaerobic bacteria; details: 24-hour incubation
Bacteroides vulgatis = assay: standard agar-dilution test, anaerobic bacteria; details: Bacteroides vulgatis; 24-hour incubation; read-out: MIC
Bacteroides fragilis 111 = assay: standard agar-dilution test, anaerobic bacteria; details: Bacteroides fragilis 111; 24-hour incubation; read-out: MIC
[6] = test system: Peptococcus asaccharolyticus; assay: standard agar-dilution test, anaerobic bacteria; details: Peptoniphilus asaccharolyticus, 24-hour incubation
[7] = test system: Bacteroides fragilis 1877; assay: standard agar-dilution test, anaerobic bacteria; details: Bacteroides fragilis 1877; 24-hour incubation; read-out: MIC
[8] = test system: Bacteroides fragilis 1936B; assay: standard agar-dilution test, anaerobic bacteria; details: Bacteroides fragilis 1936B; 24-hour incubation; read-out: MIC
Eubacterium aerofaciens = assay: standard agar-dilution test, anaerobic bacteria; details: Collinsella aerofaciens, 24 h
[9] = test system: Fusobacterium necrophorum; assay: standard agar-dilution test, anaerobic bacteria; details: 24-hour incubation, read-out: MIC
[10] = test system: Bacteroides thetaiotaomicron; assay: standard agar-dilution test, anaerobic bacteria; details: 24-hour incubation
Protocol: (§1) Table IV summarizes the activity of typical compounds of this invention, as determined by the standard agar-dilution test.
(§2) *Endpoint read after 24-hour incubation

Clostridium septicum = assay: standard agar-dilution test, anaerobic bacteria; details: 24-hour incubation
Protocol: as §1, §2

Bacteroides corrodens = assay: standard agar-dilution test, anaerobic bacteria; details: Eikenella corrodens; Bacteroides corrodens; 24-hour incubation; read-out: MIC

CC[C@]1(C)C[C@@H](OC(=O)CS[C@@H]2OC[C@@H](OC(C)=O)[C@@H](OC(C)=O)[C@H]2OC(C)=O)[C@]2(C)[C@H](C)CC[C@]3(CCC(=O)[C@H]32)[C@@H](C)[C@@H]1O
Units of Activity [1]: 480 to 500 µg/mg

C=C[C@]1(C)C[C@@H](OC(=O)CO[C@@H]2OC[C@@H](O)[C@H](O)[C@H]2O)[C@]2(C)[C@H](C)CC[C@]3(CCC(=O)[C@H]32)[C@@H](C)[C@@H]1O [A-40104 factor A, reference compound]
Units of Activity [1]: 446 to 452 µg/mg

CC[C@]1(C)C[C@@H](OC(=O)CS[C@@H]2O[C@H](COC(C)=O)[C@@H](OC(C)=O)[C@H](OC(C)=O)[C@H]2OC(C)=O)[C@]2(C)[C@H](C)CC[C@]3(CCC(=O)[C@H]32)[C@@H](C)[C@@H]1O [Compound 4, 14-deoxy-14-[(2,3,4,6-tetra-O-acetyl-β-D-glucopyranosyl)thioacetoxy]-19,20-dihydromutilin]
MIC [2]: 4 µg/mL (≈ 5.5 µM) | MIC [3]: 8 µg/mL (≈ 11 µM) | MIC (Clostridium perfringens): > 128 µg/mL | MIC [4]: 2 µg/mL (≈ 2.75 µM) | MIC (Peptococcus prevoti): 8 µg/mL (≈ 11 µM) | Activity (color reaction) (Spiroplasma citri; 0.01 ppm): Y | Activity (color reaction) (Spiroplasma citri; 0.05 ppm): R | Activity (color reaction) (Spiroplasma citri; 0.1 ppm): R | Activity (color reaction) (Spiroplasma citri; 1.0 ppm): R | MIC (Fusobacterium symbiosum): 128 µg/mL (≈ 176 µM) | MIC (Actinomyces israelii): ≤ 0.5 µg/mL | MIC [5]: 1 µg/mL (≈ 1.38 µM) | MIC (Bacteroides vulgatis): 32 µg/mL (≈ 44 µM) | MIC (Bacteroides fragilis 111): 32 µg/mL (≈ 44 µM) | MIC [6]: ≤ 0.5 µg/mL | MIC [7]: 32 µg/mL (≈ 44 µM) | MIC [8]: 64 µg/mL (≈ 88 µM) | Units of Activity [1]: 203 to 220 µg/mg | MIC (Eubacterium aerofaciens): > 128 µg/mL | MIC [9]: ≤ 0.5 µg/mL | MIC [10]: 64 µg/mL (≈ 88 µM) | MIC (Clostridium septicum): 4 µg/mL (≈ 5.5 µM) | MIC (Bacteroides corrodens): 32 µg/mL (≈ 44 µM)

CC[C@]1(C)C[C@@H](OC(=O)CO[C@H]2O[C@H](CO)[C@@H](O)[C@H](O)[C@H]2O)[C@]2(C)[C@H](C)CC[C@]3(CCC(=O)[C@H]32)[C@@H](C)[C@@H]1O [Example 2, 14-deoxy-14-[(α-D-glucopyranosyl)oxyacetoxy]-19,20-dihydromutilin]
Units of Activity [1]: < 100 µg/mg

C=C[C@]1(C)C[C@@H](OC(=O)CS[C@@H]2OC[C@@H](OC(C)=O)[C@@H](OC(C)=O)[C@@H]2OC(C)=O)[C@]2(C)[C@H](C)CC[C@]3(CCC(=O)[C@H]32)[C@@H](C)[C@@H]1O [Example 20, 14-Deoxy-14-[(2,3,4-tri-O-acetyl-β-D-arabinopyranosyl)thioacetoxy]mutilin]
Units of Activity [1]: 430 µg/mg

CC[C@]1(C)C[C@@H](OC(=O)CS[C@@H]2OC[C@@H](OC(C)=O)[C@@H](OC(C)=O)[C@@H]2OC(C)=O)[C@]2(C)[C@H](C)CC[C@]3(CCC(=O)[C@H]32)[C@@H](C)[C@@H]1O [Example 21, 14-Deoxy-14-[(2,3,4-tri-O-acetyl-β-D-arabinopyranosyl)thioacetoxy]-19,20-dihydromutilin]
Units of Activity [1]: 380 µg/mg

C=C[C@]1(C)C[C@@H](OC(=O)CS[C@@H]2OC[C@@H](O)[C@@H](O)[C@@H]2O)[C@]2(C)[C@H](C)CC[C@]3(CCC(=O)[C@H]32)[C@@H](C)[C@@H]1O [Example 22, 14-Deoxy-14-[(β-D-arabinopyranosyl)thioacetoxyl]mutilin]
Units of Activity [1]: 380 µg/mg

CC[C@]1(C)C[C@@H](OC(=O)CS[C@@H]2OC[C@@H](O)[C@@H](O)[C@@H]2O)[C@]2(C)[C@H](C)CC[C@]3(CCC(=O)[C@H]32)[C@@H](C)[C@@H]1O [Example 23, 14-deoxy-14-[(β-D-arabinopyranosyl)thioacetoxy]-19,20-dihydromutilin]
Units of Activity [1]: 420 µg/mg

C=C[C@]1(C)C[C@@H](OC(=O)CS[C@H]2OC[C@@H](OC(C)=O)[C@@H](OC(C)=O)[C@H]2OC(C)=O)[C@]2(C)[C@H](C)CC[C@]3(CCC(=O)[C@H]32)[C@@H](C)[C@@H]1O [Example 36 α-anomer, 14-deoxy-14-[(2,3,4-tri-O-acetyl-α-D-ribopyranosyl)thioacetoxy]mutilin]
Units of Activity [1]: 50 µg/mg

C=C[C@]1(C)C[C@@H](OC(=O)CS[C@H]2OC[C@@H](O)[C@@H](O)[C@H]2O)[C@]2(C)[C@H](C)CC[C@]3(CCC(=O)[C@H]32)[C@@H](C)[C@@H]1O [Example 37, 14-Deoxy-14-[(α-D-ribopyranosyl)thioacetoxy]-mutilin]
Units of Activity [1]: 350 µg/mg

C=C[C@]1(C)C[C@@H](OC(=O)CS[C@@H]2OC[C@@H](O)[C@@H](O)[C@H]2O)[C@]2(C)[C@H](C)CC[C@]3(CCC(=O)[C@H]32)[C@@H](C)[C@@H]1O [Example 38, 14-Deoxy-14-[(β-D-ribopyranosyl)thioacetoxy]-mutilin]
Units of Activity [1]: 1070 µg/mg

CC[C@]1(C)C[C@@H](OC(=O)CS[C@H]2OC[C@@H](O)[C@@H](O)[C@H]2O)[C@]2(C)[C@H](C)CC[C@]3(CCC(=O)[C@H]32)[C@@H](C)[C@@H]1O [Example 39, 14-Deoxy-14-[(α-D-ribopyranosyl)thioacetoxy]-19,20-dihydromutilin]
Units of Activity [1]: 430 to 433 µg/mg

CC[C@]1(C)C[C@@H](OC(=O)CS[C@@H]2OC[C@@H](O)[C@@H](O)[C@H]2O)[C@]2(C)[C@H](C)CC[C@]3(CCC(=O)[C@H]32)[C@@H](C)[C@@H]1O [Example 40, 14-Deoxy-14-[(β-D-ribopyranosyl)thioacetoxy]-19,20-dihydromutilin]
Units of Activity [1]: 1500 µg/mg

C=C[C@]1(C)C[C@@H](OC(=O)CS[C@H]2O[C@H](COC(C)=O)[C@@H](OC(C)=O)[C@H]2OC(C)=O)[C@]2(C)[C@H](C)CC[C@]3(CCC(=O)[C@H]32)[C@@H](C)[C@@H]1O [Example 41 α-anomer, 14-deoxy-14-[(2,3,5-tri-O-acetyl-α-D-ribofuranosyl)thioacetoxy]mutilin]
Units of Activity [1]: about 200 mcg/mg

C=C[C@]1(C)C[C@@H](OC(=O)CS[C@@H]2O[C@H](COC(C)=O)[C@@H](OC(C)=O)[C@H]2OC(C)=O)[C@]2(C)[C@H](C)CC[C@]3(CCC(=O)[C@H]32)[C@@H](C)[C@@H]1O [Example 41 β-anomer, 14-deoxy-14-[(2,3,5-tri-O-acetyl-β-D-ribofuranosyl)thioacetoxy]mutilin]
Units of Activity [1]: about 450 mcg/mg

C=C[C@]1(C)C[C@@H](OC(=O)CS[C@@H]2O[C@H](COC(C)=O)[C@@H](O[C@H]3O[C@H](COC(C)=O)[C@@H](OC(C)=O)[C@H](OC(C)=O)[C@H]3OC(C)=O)[C@H](OC(C)=O)[C@H]2OC(C)=O)[C@]2(C)[C@H](C)CC[C@]3(CCC(=O)[C@H]32)[C@@H](C)[C@@H]1O [Example 52, 14-Deoxy-14-[(4-O-(2,3,4,6-tetra-O-acetyl-α-D-glucopyranosyl)-2,3,6-tri-O-acetyl-β-D-glucopyranosyl)thioacetoxy]mutilin]
Units of Activity [1]: 40 µg/mg

CC[C@]1(C)C[C@@H](OC(=O)CS[C@@H]2O[C@H](COC(C)=O)[C@@H](O[C@H]3O[C@H](COC(C)=O)[C@@H](OC(C)=O)[C@H](OC(C)=O)[C@H]3OC(C)=O)[C@H](OC(C)=O)[C@H]2OC(C)=O)[C@]2(C)[C@H](C)CC[C@]3(CCC(=O)[C@H]32)[C@@H](C)[C@@H]1O [Example 53]
Units of Activity [1]: 28 µg/mg

From patent US4130709A, “Pleuromutilin glycoside derivatives” (Eli Lilly and Company, priority 1977, dated 1978)
